The values below come from patent US20210047278A1, “E3 UBIQUITIN LIGASE AGONISTS, PHARMACEUTICAL COMPOSITIONS INCLUDING THE E3 UBIQUITIN LIGASE AGONISTS, RELATED METHODS OF USE” (FRED HUTCHINSON CANCER RESEARCH CENTER, priority 2018, published 2021).

Molecules are shown by their SMILES. Where two headings read alike, the source gives them in different places.

Format in all cases: binding
One experiment addresses T1, FBW7^ARG (RLFBW7) alone (Homo sapiens, UniProt Q969H0, R505L).
T1 construct: GST (TEV site and flexible linker) (N, cleaved yes); made in house; host or cells: SF9 insect cells (baculovirus)
Nature of the experiment: Counterscreen 1 ALPHAscreen with FBW7^ARG alone (CSRUN1/DCSRUN1). As to conditions: dose-response counterscreen; for Emax: read-out: RLFBW7 ACT DCSRUN1 Averaged Max % Response. In outline:
(§1)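 Dose-response in triplicate, 10 points in 3-fold steps with a top concentration near 87 μM. Each counterscreen lacks one partner (FBW7^ARG alone or pCycE alone), giving signal not due to the binding pair. Activity is % activation versus WT-FBW7+pCycE; positive threshold 10%.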
In general terms: The purpose of a counterscreen is to sort out artefacts and off-target activity.

In the next experiment the target is T2, FBW7^ARG+pCycE (Homo sapiens, UniProt Q969H0, R505L).
T2 construct: GST (TEV site and flexible linker) (N, cleaved yes); made in house; host or cells: SF9 insect cells (baculovirus)
T2 sequence (Q969H0 64-707 R505L): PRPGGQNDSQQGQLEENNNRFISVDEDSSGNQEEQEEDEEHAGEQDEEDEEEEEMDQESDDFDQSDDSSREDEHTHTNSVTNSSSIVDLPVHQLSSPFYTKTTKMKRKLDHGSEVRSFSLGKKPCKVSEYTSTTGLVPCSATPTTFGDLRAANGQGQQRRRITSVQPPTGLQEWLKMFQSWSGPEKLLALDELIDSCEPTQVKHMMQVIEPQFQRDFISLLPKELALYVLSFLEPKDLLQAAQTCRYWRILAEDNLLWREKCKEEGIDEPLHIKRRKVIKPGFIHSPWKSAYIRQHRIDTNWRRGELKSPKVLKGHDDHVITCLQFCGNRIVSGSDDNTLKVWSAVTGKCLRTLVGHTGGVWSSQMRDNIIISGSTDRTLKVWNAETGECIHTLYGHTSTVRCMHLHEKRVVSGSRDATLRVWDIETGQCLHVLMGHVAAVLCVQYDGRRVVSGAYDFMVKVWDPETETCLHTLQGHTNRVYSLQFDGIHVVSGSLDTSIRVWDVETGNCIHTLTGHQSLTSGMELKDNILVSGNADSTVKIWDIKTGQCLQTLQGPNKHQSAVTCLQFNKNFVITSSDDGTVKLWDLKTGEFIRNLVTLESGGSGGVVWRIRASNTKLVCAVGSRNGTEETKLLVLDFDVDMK
T2 sequence (P63208 2-163 partner): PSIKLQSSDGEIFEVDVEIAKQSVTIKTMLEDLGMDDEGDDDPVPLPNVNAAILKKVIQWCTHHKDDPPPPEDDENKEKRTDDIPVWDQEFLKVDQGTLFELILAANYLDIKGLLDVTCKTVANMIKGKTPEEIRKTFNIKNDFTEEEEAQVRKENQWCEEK
Nature of the experiment: FBW7^ARG-cyclin E agonist ALPHAscreen (primary PRUN, confirmation CRUN1, dose-response DRUN). The following applies: for EC50 / Emax: DRUN dose-response; for Emax: relative to WT-FBW7+pCycE, read-out: FBW7 ACT Averaged Max % Response. The gist of the method:
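Compounds tested once at 26.1 μM (primary; confirmation in triplicate) or in a triplicate 10-point 3-fold dilution up to ~87 μM (dose-response). Bridging of 25 nM mutant FBW7 R505L to 25 nM biotinylated phosphorylated cyclin E peptide detected by Ni-acceptor/streptavidin-donor ALPHA signal, normalized to WT-FBW7+pCycE.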
For orientation: In Alpha technology, singlet oxygen from a donor bead excites a nearby acceptor bead.

A further experiment concerns pCycE alone. Put plainly: Counterscreen 2 ALPHAscreen with cyclin E phosphopeptide alone (CSRUN2/DCSRUN2). The following applies: for CyCEP ACT DCSRUN2 Averaged Max % Response: activation relative to WT-FBW7+pCycE, averaged maximum; for EC50: dose-response, triplicate, 10 point 3-fold dilutional series, read-out: CyCEP ACT DCSRUN2 Final EC50. The gist of the method: as §1

[1] abbreviates: raw curve fit, read-out: RLFBW7 ACT DCSRUN1 EC50 Curve Fit Raw.
The mark [2] stands for this setting: read-out: RLFBW7 ACT DCSRUN1 Final EC50.
Where [3] appears, read: raw curve fit, read-out: FBW7 ACT EC50 Curve Fit Raw, Molar.
[4] abbreviates: triplicate, 10 point 3-fold dilution, max approx. 87 μM, read-out: FBW7 ACT Final EC50, Molar.
The mark [5] stands for this setting: confirmation assay, triplicate, single concentration 26.1 μM, read-out: FBW7 ACT CRUN1 Avg % Response and Stdev.
Setting [6] is: primary screen, 1536-well, 26.1 μM, FBW7^ARG + pCycE degron peptide, high control wt-FBW7+pCycE, read-out: FBW7 ACT PRUN % Response.

T1 sequence (Q969H0 64-707 R505L): as the sequence (Q969H0 64-707 R505L) above
T1 sequence (P63208 2-163 partner): as the sequence (P63208 2-163 partner) above

`CCCOc1ccc(C2C(C(=O)OC)=CN(CCOC)C=C2C(=O)OC)cc1` [SR-01000259436-1]: the EC50 (as a rule, the midpoint of the concentration-response curve) is 19 µM at FBW7^ARG (RLFBW7) alone (setting [1]); more than 65.3 µM on FBW7^ARG (RLFBW7) alone (setting [2]); 21.9 µM at FBW7^ARG+pCycE (setting [3]); more than 65.3 µM at FBW7^ARG+pCycE (setting [4]); more than 65.3 µM in the experiment on pCycE alone. In addition, the Emax on FBW7^ARG (RLFBW7) alone came out at 5.19%; on FBW7^ARG+pCycE, 10.7%. Moreover, the activation at 26.1 µM at FBW7^ARG+pCycE (setting [5]) is 2.9 ± 0.27%; at FBW7^ARG+pCycE (setting [6]), 2.13%. In addition, the “CyCEP ACT DCSRUN2 Averaged Max % Response” value with pCycE alone is given as 0.31%.
Consider `COc1cccc(/C=N/c2cnn(C)c2C(N)=O)c1O` [SR-01000314216-1], for which the Emax on FBW7^ARG (RLFBW7) alone turned out to be 0.25%; on FBW7^ARG+pCycE, 22.7%. Moreover, the concentration for a half-maximal effect (EC50) on FBW7^ARG (RLFBW7) alone (setting [2]) was more than 65.3 µM; at FBW7^ARG+pCycE (setting [3]), 26.4 µM; at FBW7^ARG+pCycE (setting [4]), more than 65.3 µM; with pCycE alone, more than 65.3 µM. Besides, the activation at 26.1 µM on FBW7^ARG+pCycE (setting [5]) was 4.06 ± 0.07%; on FBW7^ARG+pCycE (setting [6]), 3.64%. The “CyCEP ACT DCSRUN2 Averaged Max % Response” value in the experiment on pCycE alone is 0.18%.
Turning to `Cn1nc(CC(=O)Nc2ccc(F)c(Cl)c2)c2ccccc2c1=O` [SR-01000589827-1], the Emax was -0.247% on FBW7^ARG (RLFBW7) alone and 7.32% at FBW7^ARG+pCycE. Further, the EC50 on FBW7^ARG (RLFBW7) alone (setting [2]) is more than 85 µM; at FBW7^ARG+pCycE (setting [3]), 0.698 µM; on FBW7^ARG+pCycE (setting [4]) it was more than 85 µM; in the experiment with pCycE alone it was more than 85 µM. The activation at 26.1 µM was determined as 2.48 ± 0.45% at FBW7^ARG+pCycE (setting [5]) and 1.93% at FBW7^ARG+pCycE (setting [6]). Also, the “CyCEP ACT DCSRUN2 Averaged Max % Response” value in the experiment with pCycE alone is given as 0.04%.
Take `O=C(Nc1ccc2c(c1)OCO2)N1CCC(c2nnc(C3CC3)s2)CC1` [SR-01000922885-1]: the EC50 at FBW7^ARG (RLFBW7) alone (setting [1]) was 24.5 µM; at FBW7^ARG (RLFBW7) alone (setting [2]), more than 65.3 µM; at FBW7^ARG+pCycE (setting [3]), 31.9 µM; on FBW7^ARG+pCycE (setting [4]), more than 65.3 µM; in the experiment on pCycE alone, more than 65.3 µM. The results for the Emax on FBW7^ARG (RLFBW7) alone and on FBW7^ARG+pCycE were 0.2% and 17.5%, respectively. The results for the activation at 26.1 µM on FBW7^ARG+pCycE (setting [5]) and at FBW7^ARG+pCycE (setting [6]) were 2.33 ± 0.59% and 2.62%, respectively. For the same compound, in the experiment with pCycE alone, the “CyCEP ACT DCSRUN2 Averaged Max % Response” value amounted to 0.08%.
On to `COc1cccc(C=O)c1OC(=O)c1cccc(Cl)c1` [SR-01000242625-1], for which the EC50 on FBW7^ARG (RLFBW7) alone (setting [1]) is 0.0369 µM; on FBW7^ARG (RLFBW7) alone (setting [2]) it was more than 65.3 µM; at FBW7^ARG+pCycE (setting [3]), 26.7 µM; on FBW7^ARG+pCycE (setting [4]) it was more than 65.3 µM; in the experiment on pCycE alone, more than 65.3 µM. Besides, the Emax at FBW7^ARG (RLFBW7) alone was found to be 1.05%; at FBW7^ARG+pCycE, 33.6%. Also, the activation at 26.1 µM on FBW7^ARG+pCycE (setting [5]) turned out to be 9.26 ± 0.67%; at FBW7^ARG+pCycE (setting [6]), 11.9%. Also, the “CyCEP ACT DCSRUN2 Averaged Max % Response” value in the experiment on pCycE alone came out at 0.61%.
Take `COc1cc(-c2ccnc(N)n2)ccc1NC(=O)[C@H]1COc2ccccc2O1.O=C(O)C(F)(F)F` [SR-00000003239-1]: the EC50 on FBW7^ARG (RLFBW7) alone (setting [1]) was 12.8 µM; at FBW7^ARG (RLFBW7) alone (setting [2]), more than 65.3 µM; at FBW7^ARG+pCycE (setting [3]), 18.6 µM; at FBW7^ARG+pCycE (setting [4]), more than 65.3 µM; in the experiment with pCycE alone, more than 65.3 µM. The Emax came out at 0.69% at FBW7^ARG (RLFBW7) alone and 19.3% on FBW7^ARG+pCycE. In addition, the activation at 26.1 µM at FBW7^ARG+pCycE (setting [5]) was 2.52 ± 0.29%; on FBW7^ARG+pCycE (setting [6]) it was 2.52%. In addition, the “CyCEP ACT DCSRUN2 Averaged Max % Response” value in the experiment on pCycE alone is reported as 0.15%.
As to `O=C(Cc1ccc(Br)cc1)N1CCC(c2nc(O)c3cnccc3n2)C1.O=C(O)C(F)(F)F` (stereo not drawn) [SR-00000005455-1], the EC50 on FBW7^ARG (RLFBW7) alone (setting [1]) is 0.0129 µM; at FBW7^ARG (RLFBW7) alone (setting [2]), more than 65.3 µM; on FBW7^ARG+pCycE (setting [3]), 30.2 µM; at FBW7^ARG+pCycE (setting [4]) it was more than 65.3 µM; in the experiment on pCycE alone it was more than 65.3 µM. Besides, the Emax on FBW7^ARG (RLFBW7) alone came to 0.43%; at FBW7^ARG+pCycE, 24.7%. Further, the activation at 26.1 µM on FBW7^ARG+pCycE (setting [5]) is 4.65 ± 0.38%; at FBW7^ARG+pCycE (setting [6]), 2.32%. Further, in the experiment with pCycE alone, the “CyCEP ACT DCSRUN2 Averaged Max % Response” value was found to be 0.31%.
As for `CC(C)c1ccc(Nc2nccn3c(-c4ccoc4)cnc23)cc1` [SR-01000376943-1], the EC50 on FBW7^ARG (RLFBW7) alone (setting [1]) was 13.9 µM; on FBW7^ARG (RLFBW7) alone (setting [2]), more than 65.3 µM; at FBW7^ARG+pCycE (setting [3]), 12.7 µM; at FBW7^ARG+pCycE (setting [4]) it was more than 65.3 µM; with pCycE alone it was more than 65.3 µM. Moreover, the Emax was -0.189% at FBW7^ARG (RLFBW7) alone and 6.99% at FBW7^ARG+pCycE. The activation at 26.1 µM is 2.06 ± 0.33% at FBW7^ARG+pCycE (setting [5]) and 2.3% on FBW7^ARG+pCycE (setting [6]). The “CyCEP ACT DCSRUN2 Averaged Max % Response” value in the experiment on pCycE alone worked out at 1.39%.
Regarding `CCC(C)OC(=O)C1=C(C)NC2=C(C(=O)CC(c3ccccc3)C2)C1c1cccc2ccccc12` (stereo not drawn) [SR-01000423185-1], the values for the Emax at FBW7^ARG (RLFBW7) alone and on FBW7^ARG+pCycE were 8.99% and 13%, respectively. For the same compound, the EC50 at FBW7^ARG (RLFBW7) alone (setting [2]) is more than 47.6 µM; on FBW7^ARG+pCycE (setting [3]), 15.9 µM; on FBW7^ARG+pCycE (setting [4]), more than 47.6 µM; with pCycE alone, more than 47.6 µM. Also, the activation at 26.1 µM on FBW7^ARG+pCycE (setting [5]) amounted to 5.54 ± 0.29%; on FBW7^ARG+pCycE (setting [6]), 2.18%. Besides, the “CyCEP ACT DCSRUN2 Averaged Max % Response” value in the experiment on pCycE alone is 11.24%.
